Measurements: publication PMC11003488 (Journal of Enzyme Inhibition and Medicinal Chemistry, 2023)
Values joined by “and” are separate entries in the source; they are usually repeats but may differ in a detail not shown here. Identical values can stand only once.

What was measured:
HCT-116 (colon cancer) [1] = test: Cell cycle analysis by PI flow cytometry; format: cell-based, human; details: HCT-116, 24 h, IC50 of compound
Bax [2] = test: Protein level by ELISA assay in HCT-116; format: cell-based, human; details: HCT-116, IC50 of compound, 24 h, vs 0.1% DMSO
TNF-α = test: Gene expression by RT-qPCR in HCT-116; details: HCT-116, 24 h, IC50 of compound; vs 0.1% DMSO; 2^-ΔΔct
Bcl-2 = test: Gene expression by RT-qPCR in HCT-116; details: HCT-116, 24 h, IC50 of compound; vs 0.1% DMSO; 2^-ΔΔct
Cyt-c = test: Gene expression by RT-qPCR in HCT-116; details: HCT-116, 24 h, IC50 of compound; vs 0.1% DMSO; 2^-ΔΔct
HCT-116 (colon cancer) [3] = test: Apoptosis AV/PI assay by flow cytometry; format: cell-based, human; details: HCT-116, 24 h, IC50 of compound
Bax [4] = test: Gene expression by RT-qPCR in HCT-116; details: HCT-116, 24 h
Caspase-3 [5] = test: Gene expression by RT-qPCR in HCT-116; details: HCT-116, 24 h, IC50 of compound; vs 0.1% DMSO; 2^-ΔΔct
Caspase-3 [6] = test: Protein level by ELISA assay in HCT-116; format: cell-based, human; details: HCT-116, IC50 of compound, 24 h, vs 0.1% DMSO
A549/ATCC = details: NCI Data NSC: 800934 ref 41; cited from earlier work
T-47D = details: NCI Data NSC: 800934 ref 41; cited from earlier work
NCI-H226 = details: NCI Data NSC: 800934 ref 41; cited from earlier work
SW-620 = details: NCI Data NSC: 800934 ref 41; cited from earlier work
NCI-H322M = details: NCI Data NSC: 800934 ref 41; cited from earlier work
EKVX = details: NCI Data NSC: 800934 ref 41; cited from earlier work
CAKI-1 = details: NCI Data NSC: 800934 ref 41; cited from earlier work
NSCLC cell lines = details: read-out: MG-MID GI50; NSCLC subpanel; NCI Data NSC: 800934; cited from earlier work
A498 = details: NCI Data NSC: 800934 ref 41; cited from earlier work
786-0 = details: NCI Data NSC: 800934 ref 41; cited from earlier work
IGROV1 = details: NCI Data NSC: 800934 ref 41; cited from earlier work
COLO 205 = details: NCI Data NSC: 800934 ref 41; cited from earlier work
SNB-75 = details: NCI Data NSC: 800934 ref 41; cited from earlier work
SK-MEL-28 = details: NCI Data NSC: 800934 ref 41; cited from earlier work
ACHN = details: NCI Data NSC: 800934 ref 41; cited from earlier work
KM12 = details: NCI Data NSC: 800934 ref 41; cited from earlier work
RXF 393 = details: NCI Data NSC: 800934 ref 41; cited from earlier work
HL-60(TB) = details: NCI Data NSC: 800934 ref 41; cited from earlier work
OVCAR-4 = details: NCI Data NSC: 800934 ref 41; cited from earlier work
UO-31 = details: NCI Data NSC: 800934 ref 41; cited from earlier work
MDA-MB-435 = details: NCI Data NSC: 800934 ref 41; cited from earlier work
OVCAR-3 = details: NCI Data NSC: 800934 ref 41; cited from earlier work
Colon cancer cell lines = details: read-out: MG-MID GI50; Colon Cancer subpanel; NCI Data NSC: 800934; cited from earlier work
M14 = details: NCI Data NSC: 800934 ref 41; cited from earlier work
HS 578 T = details: NCI Data NSC: 800934 ref 41; cited from earlier work
CCRF-CEM = details: NCI Data NSC: 800934 ref 41; cited from earlier work
OVCAR-8 = details: NCI Data NSC: 800934 ref 41; cited from earlier work
SK-MEL-2 = details: NCI Data NSC: 800934 ref 41; cited from earlier work
UACC-257 = details: NCI Data NSC: 800934 ref 41; cited from earlier work
MCF7 = details: NCI Data NSC: 800934 ref 41; cited from earlier work
NCI/ADR-RES = details: NCI Data NSC: 800934 ref 41; cited from earlier work
SF-268 = details: NCI Data NSC: 800934 ref 41; cited from earlier work
SF-295 = details: NCI Data NSC: 800934 ref 41; cited from earlier work
PC-3 = details: NCI Data NSC: 800934 ref 41; cited from earlier work
HT29 = details: NCI Data NSC: 800934 ref 41; cited from earlier work
HCT-15 = details: NCI Data NSC: 800934 ref 41; cited from earlier work
LOX IMVI = details: NCI Data NSC: 800934 ref 41; cited from earlier work
DU-145 = details: NCI Data NSC: 800934 ref 41; cited from earlier work
HOP-62 = details: NCI Data NSC: 800934 ref 41; cited from earlier work
[7] = system: Ovarian cancer cell lines; details: read-out: MG-MID GI50; Ovarian Cancer subpanel; NCI Data NSC: 800934; cited from earlier work
[8] = system: Prostate cancer cell lines; details: read-out: MG-MID GI50; Prostatic Cancer subpanel; NCI Data NSC: 800934; cited from earlier work
[9] = system: NCI 60-cell line panel (full panel); details: read-out: Full panel MG-MID GI50, NCI Data NSC: 800934; cited from earlier work
UACC-62 = details: NCI Data NSC: 800934 ref 41; cited from earlier work
Melanoma cell lines = details: read-out: MG-MID GI50; Melanoma subpanel; NCI Data NSC: 800934; cited from earlier work
Renal cancer cell lines = details: read-out: MG-MID GI50; Renal Cancer subpanel; NCI Data NSC: 800934; cited from earlier work
SF-539 = details: NCI Data NSC: 800934 ref 41; cited from earlier work
TK-10 = details: NCI Data NSC: 800934 ref 41; cited from earlier work
Breast cancer cell lines = details: read-out: MG-MID GI50; Breast Cancer subpanel; NCI Data NSC: 800934; cited from earlier work
Leukaemia cell lines = details: read-out: MG-MID GI50; leukaemia subpanel; NCI Data NSC: 800934; cited from earlier work
OVCAR-5 = details: NCI Data NSC: 800934 ref 41; cited from earlier work
MALME-3M = details: NCI Data NSC: 800934 ref 41; cited from earlier work
NCI-H522 = details: NCI Data NSC: 800934 ref 41; cited from earlier work
SK-OV-3 = details: NCI Data NSC: 800934 ref 41; cited from earlier work
BT-549 = details: NCI Data NSC: 800934 ref 41; cited from earlier work
MOLT-4 = details: NCI Data NSC: 800934 ref 41; cited from earlier work
NCI-H23 = details: NCI Data NSC: 800934 ref 41; cited from earlier work
SNB-19 = details: NCI Data NSC: 800934 ref 41; cited from earlier work
SR = details: NCI Data NSC: 800934 ref 41; cited from earlier work
HCC-2998 = details: NCI Data NSC: 800934 ref 41; cited from earlier work
NCI-H460 = details: NCI Data NSC: 800934 ref 41; cited from earlier work
SN12C = details: NCI Data NSC: 800934 ref 41; cited from earlier work
U251 = details: NCI Data NSC: 800934 ref 41; cited from earlier work
CNS cancer cell lines = details: read-out: MG-MID GI50; CNS Cancer subpanel; NCI Data NSC: 800934; cited from earlier work

COc1cccc2c1C(=O)c1c(O)c3c(c(O)c1C2=O)C[C@@](O)(C(=O)CO)C[C@@H]3O[C@H]1C[C@H](N)[C@H](O)[C@H](C)O1 [Doxorubicin, reference compound]
% G0-G1 (HCT-116 (colon cancer) [1]): 55.35 ± 6.3% | % G2M (HCT-116 (colon cancer) [1]): 15.05 ± 6.7% | % S (HCT-116 (colon cancer) [1]): 18.68 ± 2.2% | % SubG0-G1 (HCT-116 (colon cancer) [1]): 10.75 ± 2.3% | Bax protein level (Bax [2]): 1.86 fold | TNF-α gene expression fold change (TNF-α): 2.33 fold and 2.33 ± 0.2 fold | Bcl-2 gene expression fold change (Bcl-2): 0.15 ± 0.03 fold | Cyt-c gene expression fold change (Cyt-c): 44.32 ± 4.3 fold | % Early apoptotic cells (LR) (HCT-116 (colon cancer) [3]): 0.00 ± 0.0% | % Late apoptotic cells (UL) (HCT-116 (colon cancer) [3]): 3.86 ± 0.66% | % Necrotic cells (UR) (HCT-116 (colon cancer) [3]): 96.12 ± 14.1% | % Viable cells (LL) (HCT-116 (colon cancer) [3]): 0.03 ± 0.001% | Bax gene expression fold change (Bax [4]; IC50 of compound, vs 0.1% DMSO, 2^-ΔΔct): 0.31 ± 0.05 fold | Bax/Bcl-2 ratio (Bax [4]; ratio of gene expression fold changes): 2 | Caspase-3 gene expression fold change (Caspase-3 [5]): 0.75 ± 0.09 fold | caspase-3 protein level (Caspase-3 [6]): 34.15 fold

CNC(=O)c1cc(Oc2ccc(NC(=O)Nc3ccc(Cl)c(C(F)(F)F)c3)cc2)ccn1 [Sorafenib]
GI50 (A549/ATCC): 3.16 µM | GI50 (T-47D): 1.99 µM | GI50 (NCI-H226): 1.25 µM | GI50 (SW-620): 3.98 µM | GI50 (NCI-H322M): 3.98 µM | GI50 (EKVX): 3.16 µM | GI50 (CAKI-1): 3.16 µM | GI50 (NSCLC cell lines): 2.53 µM | GI50 (A498): 3.16 µM | GI50 (786-0): 3.98 µM | GI50 (IGROV1): 3.16 µM | GI50 (COLO 205): 2.51 µM | GI50 (SNB-75): 1.99 µM | GI50 (SK-MEL-28): 2.51 µM | GI50 (ACHN): 3.16 µM | GI50 (KM12): 2.51 µM | GI50 (RXF 393): 3.98 µM | GI50 (HL-60(TB)): 0.63 µM | GI50 (OVCAR-4): 3.16 µM | GI50 (UO-31): 3.16 µM | GI50 (MDA-MB-435): 1.99 µM | GI50 (OVCAR-3): 3.98 µM | GI50 (Colon cancer cell lines): 2.68 µM | GI50 (M14): 1.99 µM | GI50 (HS 578 T): 3.16 µM | GI50 (CCRF-CEM): 3.16 µM | GI50 (OVCAR-8): 3.16 µM | GI50 (SK-MEL-2): 1.25 µM | GI50 (UACC-257): 1.99 µM | GI50 (MCF7): 2.51 µM | GI50 (NCI/ADR-RES): 3.16 µM | GI50 (SF-268): 3.98 µM | GI50 (SF-295): 2.51 µM | GI50 (PC-3): 1.99 µM | GI50 (HT29): 2.51 µM | GI50 (HCT-15): 2.51 µM | GI50 (LOX IMVI): 2.51 µM | GI50 (DU-145): 5.01 µM | GI50 (HOP-62): 2.51 µM | GI50 [7]: 3.27 µM | GI50 [8]: 3.5 µM | GI50 [9]: 2.76 µM | GI50 (UACC-62): 2.51 µM | GI50 (Melanoma cell lines): 2.16 µM | GI50 (Renal cancer cell lines): 3.46 µM | GI50 (SF-539): 1.99 µM | GI50 (TK-10): 3.98 µM | GI50 (Breast cancer cell lines): 2.76 µM | GI50 (Leukaemia cell lines): 1.91 µM | GI50 (OVCAR-5): 3.16 µM | GI50 (MALME-3M): 3.16 µM | GI50 (NCI-H522): 1.99 µM | GI50 (SK-OV-3): 3.16 µM | GI50 (BT-549): 3.16 µM | GI50 (MOLT-4): 2.51 µM | GI50 (NCI-H23): 1.99 µM | GI50 (SNB-19): 5.01 µM | GI50 (SR): 1.99 µM | GI50 (HCC-2998): 3.16 µM | GI50 (NCI-H460): 3.16 µM | GI50 (SN12C): 3.16 µM | GI50 (U251): 3.16 µM | GI50 (CNS cancer cell lines): 3.1 µM
